One may read the IC50 as the concentration that gives 50% inhibition.

Our source for the IC50 values is ChEMBL document CHEMBL2203083, “Facile synthesis and anticancer activity of C-10 non-acetal deoxoartemisinin dimers” (Bioorg Med Chem Lett, 2012).

The experiment has as its system Caco-2. The experiment is described as follows: Cytotoxicity against human Caco2 cells assessed as cell viability after 48 hrs by MTT assay. The format is functional, cell-based. The conditions noted are these: Caco-2, 48 h. Background: Tetrazolium assays rely on reduction of a dye to a coloured formazan, in cell work by metabolically active cells.
On to `C[C@H]1[C@@H](CC(=O)N(CCNC(=O)[C@@H](N)CCCCN)CC(=O)NCCN(CC(=O)OC(C)(C)C)C(=O)C[C@H]2O[C@@H]3O[C@@]4(C)CC[C@H]5[C@H](C)CC[C@@H]([C@H]2C)[C@@]35OO4)O[C@@H]2O[C@@]3(C)CC[C@H]4[C@H](C)CC[C@@H]1[C@@]24OO3`, for which the IC50 amounted to 3.58 µM.

With `C[C@H]1[C@@H](O)O[C@@H]2O[C@@]3(C)CC[C@H]4[C@H](C)CC[C@@H]1[C@@]24OO3` [ARTENIMOL], the IC50 came out at 26.9 µM.

As to `C[C@H]1[C@@H](CC(=O)N(CCNC(=O)[C@H](CCCCNC(=O)OC(C)(C)C)NC(=O)OCC2c3ccccc3-c3ccccc32)CC(=O)OC(C)(C)C)O[C@@H]2O[C@@]3(C)CC[C@H]4[C@H](C)CC[C@@H]1[C@@]24OO3`, the 50% inhibitory concentration (IC50) worked out at 12 µM.

For the compound `C[C@H]1[C@@H](CC(=O)N(CCNC(=O)[C@H](CCCCN)NC(=O)OCC2c3ccccc3-c3ccccc32)CC(=O)OC(C)(C)C)O[C@@H]2O[C@@]3(C)CC[C@H]4[C@H](C)CC[C@@H]1[C@@]24OO3`, the IC50 was determined as 4.38 µM.

As to `C[C@H]1[C@@H](CC(=O)N(CCNC(=O)[C@@H](N)CCCCN)CC(=O)OC(C)(C)C)O[C@@H]2O[C@@]3(C)CC[C@H]4[C@H](C)CC[C@@H]1[C@@]24OO3`, the IC50 was determined as 14.7 µM.

Regarding `C[C@H]1[C@@H](CC(=O)N(CCNC(=O)OCC2c3ccccc3-c3ccccc32)CC(=O)OC(C)(C)C)O[C@@H]2O[C@@]3(C)CC[C@H]4[C@H](C)CC[C@@H]1[C@@]24OO3`, the IC50 was found to be 5.36 µM.

With `C[C@H]1[C@@H](CC(=O)N(CCNC(=O)[C@H](CCCCN)NC(=O)OCC2c3ccccc3-c3ccccc32)CC(=O)NCCN(CC(=O)OC(C)(C)C)C(=O)C[C@H]2O[C@@H]3O[C@@]4(C)CC[C@H]5[C@H](C)CC[C@@H]([C@H]2C)[C@@]35OO4)O[C@@H]2O[C@@]3(C)CC[C@H]4[C@H](C)CC[C@@H]1[C@@]24OO3`, the IC50 is 2.04 µM.

`C[C@H]1[C@@H](CC(=O)N(CCNC(=O)[C@H](CCCCNC(=O)OC(C)(C)C)NC(=O)OCC2c3ccccc3-c3ccccc32)CC(=O)NCCN(CC(=O)OC(C)(C)C)C(=O)C[C@H]2O[C@@H]3O[C@@]4(C)CC[C@H]5[C@H](C)CC[C@@H]([C@H]2C)[C@@]35OO4)O[C@@H]2O[C@@]3(C)CC[C@H]4[C@H](C)CC[C@@H]1[C@@]24OO3`: the IC50 stood at 8.03 µM.

Consider `C[C@H]1[C@@H](CC(=O)N(CCNC(=O)OCC2c3ccccc3-c3ccccc32)CC(=O)NCCN(CC(=O)OC(C)(C)C)C(=O)C[C@H]2O[C@@H]3O[C@@]4(C)CC[C@H]5[C@H](C)CC[C@@H]([C@H]2C)[C@@]35OO4)O[C@@H]2O[C@@]3(C)CC[C@H]4[C@H](C)CC[C@@H]1[C@@]24OO3`, for which the IC50 stood at 2.87 µM.
